The values that follow are results of earlier work, collected in patent US8821913B2, “Controlled releases system containing temozolomide” (Tasly Holding Group Co., Ltd., priority 2002, dated 2014).

Structures are written as SMILES. Read-outs that look alike come from different tables or passages of the source.

For series [1] the following is noted: phase I clinical trial.
The conditions of series [2]: mouse.

As to `Cn1nnc2c(C(N)=O)ncn2c1=O` [TMZ, Temozolomide], the values for the half-life time in series [1], in series [2] (i.p.) and in series [2] (p.o.) were 1.8 h, 1.13 h and 1.29 h, respectively. In series [1], the “time to reach maximum plasma concentration” value was not above 0.7 h.
